pIC50: −log10 of the molar value.
Columns and labels:
[1] = target: T1, FAAH (Mus musculus (Mouse), UniProt O08914); assay: Mouse brain proteomes from inhibitor treated mice (oral gavage, sacrificed 4 h after administration, ABPP analysis), FAAH; assay type: in vivo, mouse (C57Bl/6J); conditions: 5 mg/kg oral gavage
Experimental: (§1) Preparation of Mouse Brain Proteomes from Inhibitor Treated Mice.
(§2) Inhibitors were administered to wild-type C57Bl/6J by oral gavage in a vehicle, e.g. PEG400/Ethanol/PBS (7/2/1). Each animal was sacrificed 4 h following administration and brain proteomes were prepared and analyzed according to previously established methods (See Niphakis, M. J., et al. (2011) ACS Chem. Neurosci. and Long, J. Z., et al. Nat. Chem. Biol. 5:37-44). Data from this assay is shown in Table 2 (% inhibition at 5 mg/kg).

[2] = target: T2, MAGL (Mus musculus (Mouse), UniProt O35678); assay: Mouse brain proteomes from inhibitor treated mice (oral gavage, sacrificed 4 h after administration, ABPP analysis); assay type: in vivo, mouse (C57Bl/6J); conditions: 5 mg/kg oral gavage
Experimental: as §1, §2

[3] = target: T3, ABHD6 (Mus musculus (Mouse), UniProt Q8R2Y0); assay: In vitro competitive activity-based protein profiling (mouse brain membrane fraction or cell lysates), ABHD6 band; assay type: biochemical; conditions: mouse proteome; for inhibition at 1 µM: read-out: ABHD6 % Inh 1 μM (mouse); for pIC50: competitive ABPP
Procedure, shortened: (§3)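 Mouse proteome samples (brain membrane fraction or cell lysate, 1.0 mg/mL protein) were pretreated with varying inhibitor concentrations and subsequently probed with fluorophosphonate-rhodamine, each step lasting 30 min at 37° C. Labelled proteins were separated by SDS-PAGE, and band fluorescence was imaged and quantified.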

[4] = target: T3, ABHD6; assay: Mouse brain proteomes from inhibitor treated mice (oral gavage, sacrificed 4 h after administration, ABPP analysis), ABHD6; assay type: in vivo, mouse (C57Bl/6J); conditions: 5 mg/kg oral gavage
Experimental: as §1, §2

[5] = target: T1, FAAH; assay: In vitro competitive activity-based protein profiling (mouse brain membrane fraction or cell lysates), FAAH band; assay type: biochemical; conditions: mouse proteome; for inhibition at 1 µM: read-out: FAAH % Inh 1 μM (mouse); for pIC50: competitive ABPP
Procedure, shortened: as §3

[6] = target: T2, MAGL; assay: In vitro competitive activity-based protein profiling (mouse brain membrane fraction or cell lysates), MAGL band; assay type: biochemical; conditions: mouse proteome; for inhibition at 1 µM: read-out: MAGL % Inh 1 μM (mouse); for pIC50: competitive ABPP
Experimental: In Vitro Competitive Activity-Based Protein Profiling.
Proteomes (mouse brain membrane fraction or cell lysates) (50 μL, 1.0 mg/mL total protein concentration) were preincubated with varying concentrations of inhibitors at 37° C. After 30 min, FP—Rh (1.0 μL, 50 μM in DMSO) was added and the mixture was incubated for another 30 min at 37° C. Reactions were quenched with SDS loading buffer (50 μL-4×) and run on SDS-PAGE.

T3 sequence (Q8R2Y0 whole entry): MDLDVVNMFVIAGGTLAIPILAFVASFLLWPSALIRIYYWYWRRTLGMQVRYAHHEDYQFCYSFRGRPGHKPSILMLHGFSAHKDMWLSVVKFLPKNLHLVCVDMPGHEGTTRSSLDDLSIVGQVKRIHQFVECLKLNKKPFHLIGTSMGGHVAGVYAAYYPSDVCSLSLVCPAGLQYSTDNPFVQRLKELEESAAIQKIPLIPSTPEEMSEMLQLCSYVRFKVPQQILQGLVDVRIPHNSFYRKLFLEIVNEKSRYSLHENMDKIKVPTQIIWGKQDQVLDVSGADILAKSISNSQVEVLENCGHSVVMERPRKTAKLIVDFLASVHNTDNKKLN
T2 sequence (O35678 whole entry): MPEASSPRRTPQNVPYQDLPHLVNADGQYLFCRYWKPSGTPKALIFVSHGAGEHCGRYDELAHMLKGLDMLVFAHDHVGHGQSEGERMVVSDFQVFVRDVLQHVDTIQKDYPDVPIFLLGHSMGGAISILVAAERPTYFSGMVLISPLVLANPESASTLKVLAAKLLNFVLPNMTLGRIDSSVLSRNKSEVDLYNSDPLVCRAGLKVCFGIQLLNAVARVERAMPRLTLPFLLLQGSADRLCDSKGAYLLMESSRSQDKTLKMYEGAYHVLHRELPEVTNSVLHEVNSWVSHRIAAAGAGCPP
T1 sequence (O08914 whole entry): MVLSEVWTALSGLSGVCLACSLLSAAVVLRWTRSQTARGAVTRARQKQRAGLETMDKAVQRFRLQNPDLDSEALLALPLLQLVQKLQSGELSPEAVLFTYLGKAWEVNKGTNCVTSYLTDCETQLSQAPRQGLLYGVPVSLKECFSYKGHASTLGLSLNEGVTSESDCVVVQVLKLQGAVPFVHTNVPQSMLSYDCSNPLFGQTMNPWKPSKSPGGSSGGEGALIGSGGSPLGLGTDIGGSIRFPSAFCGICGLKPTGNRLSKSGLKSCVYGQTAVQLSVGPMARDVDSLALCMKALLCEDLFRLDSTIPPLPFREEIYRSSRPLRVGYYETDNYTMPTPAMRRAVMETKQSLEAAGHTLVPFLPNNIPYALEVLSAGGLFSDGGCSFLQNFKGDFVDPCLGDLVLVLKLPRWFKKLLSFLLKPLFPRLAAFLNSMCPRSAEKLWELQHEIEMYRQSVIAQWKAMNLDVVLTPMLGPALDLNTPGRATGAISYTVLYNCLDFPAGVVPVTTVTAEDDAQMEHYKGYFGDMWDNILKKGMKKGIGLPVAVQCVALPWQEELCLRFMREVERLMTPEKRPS

Structure (SMILES) | FAAH % Inh 5 mg/kg (mouse) [1] | MAGL % Inh 5 mg/kg (mouse) [2] | inhibition at 1 µM [3] | pIC50 [3] | ABHD6 % Inh 5 mg/kg (mouse) [4] | inhibition at 1 µM [5] | pIC50 [5] | inhibition at 1 µM [6] | pIC50 [6]
O=C(OC(C(F)(F)F)C(F)(F)F)N1CCC2(CCCN2Cc2ccc(F)c(OCCF)c2)CC1 [Example 29, 1,1,1,3,3,3-Hexafluoropropan-2-yl 1-(4-fluoro-3-(2-fluoroethoxy)benzyl)-1,8-diazaspiro[4.5]decane-8-carboxylate] | ## (## is equal to or greater than 25% but less than 75%) | ### (### is ≥75%) | ≥ 75% | < 6.00 | ### (### is ≥75%) | < 25% | < 6.00 | > 75% | > 7.00
O=C(OC(C(F)(F)F)C(F)(F)F)N1CCC2(CCCN2Cc2ccc(Cl)cc2OCCF)CC1 [Example 30, 1,1,1,3,3,3-Hexafluoropropan-2-yl 1-(4-chloro-2-(2-fluoroethoxy)benzyl)-1,8-diazaspiro[4.5]decane-8-carboxylate] | # (# is <25%) | ### (### is ≥75%) | < 25% | < 6.00 | # (# is <25%) | < 25% | < 6.00 | > 75% | > 7.00
O=C(OC(C(F)(F)F)C(F)(F)F)N1CCC2(CCCN2Cc2ccc(OCCF)cc2)CC1 [Example 31, 1,1,1,3,3,3-Hexafluoropropan-2-yl 1-(4-(2-fluoroethoxy)benzyl)-1,8-diazaspiro[4.5]decane-8-carboxylate] | # (# is <25%) | ### (### is ≥75%) | < 25% | < 6.00 | ## (## is equal to or greater than 25% but less than 75%) | < 25% | < 6.00 | > 75% | > 7.00
CCOc1cc(CN2CCCC23CCN(C(=O)OC(C(F)(F)F)C(F)(F)F)CC3)ccc1Cl [Example 32, 1,1,1,3,3,3-Hexafluoropropan-2-yl 1-(4-chloro-3-ethoxybenzyl)-1,8-diazaspiro[4.5]decane-8-carboxylate] | # (# is <25%) | ### (### is ≥75%) | < 25% | < 6.00 | # (# is <25%) | < 25% | < 6.00 | > 75% | > 7.00
O=C(OC(C(F)(F)F)C(F)(F)F)N1CCC2(CCCN2Cc2cc(Cl)cc(N3CCOCC3)c2)CC1 [Example 33, 1,1,1,3,3,3-Hexafluoropropan-2-yl 1-(3-chloro-5-morpholinobenzyl)-1,8-diazaspiro[4.5]decane-8-carboxylate] | ## (## is equal to or greater than 25% but less than 75%) | ### (### is ≥75%) | < 25% | < 6.00 | # (# is <25%) | < 25% | < 6.00 | > 75% | > 7.00
O=C(OC(C(F)(F)F)C(F)(F)F)N1CCC2(CCCN2Cc2cc(Cl)cc(N3CCCC3)c2)CC1 [Example 34, 1,1,1,3,3,3-Hexafluoropropan-2-yl 1-(3-chloro-5-(pyrrolidin-1-yl)benzyl)-1,8-diazaspiro[4.5]decane-8-carboxylate] | # (# is <25%) | ### (### is ≥75%) | < 25% | < 6.00 | # (# is <25%) | < 25% | < 6.00 | > 75% | > 7.00
O=C(OC(C(F)(F)F)C(F)(F)F)N1CCC2(CCCN2Cc2cc(N3CCOCC3)cc(C(F)(F)F)c2)CC1 [Example 35, 1,1,1,3,3,3-Hexafluoropropan-2-yl 1-(3-morpholino-5-(trifluoromethyl)benzyl)-1,8-diazaspiro[4.5]decane-8-carboxylate] | # (# is <25%) | ### (### is ≥75%) | < 25% | < 6.00 | # (# is <25%) | < 25% | < 6.00 | > 75% | > 7.00
O=C(OC(C(F)(F)F)C(F)(F)F)N1CCC2(CCCN2Cc2cc(N3CCCC3)cc(C(F)(F)F)c2)CC1 [Example 36, 1,1,1,3,3,3-Hexafluoropropan-2-yl 1-(3-(pyrrolidin-1-yl)-5-(trifluoromethyl)benzyl)-1,8-diazaspiro[4.5]decane-8-carboxylate] | # (# is <25%) | ### (### is ≥75%) | < 25% | < 6.00 | # (# is <25%) | < 25% | < 6.00 | > 75% | > 7.00
O=C(OC(C(F)(F)F)C(F)(F)F)N1CCC2(CCCN2Cc2cc(OC(F)(F)F)cc(N3CCOCC3)c2)CC1 [Example 37, 1,1,1,3,3,3-Hexafluoropropan-2-yl 1-(3-morpholino-5-(trifluoromethoxy)benzyl)-1,8-diazaspiro[4.5]decane-8-carboxylate] | # (# is <25%) | ### (### is ≥75%) | < 25% | < 6.00 | # (# is <25%) | < 25% | < 6.00 | > 75% | > 7.00
O=C(OC(C(F)(F)F)C(F)(F)F)N1CCC2(CCCN2Cc2cc(N3CCS(=O)(=O)CC3)cc(C(F)(F)F)c2)CC1 [Example 42, 1,1,1,3,3,3-Hexafluoropropan-2-yl 1-(3-(1,1-dioxidothiomorpholino)-5-(trifluoromethyl)benzyl)-1,8-diazaspiro[4.5]decane-8-carboxylate] | # (# is <25%) | ### (### is ≥75%) | < 25% | < 6.00 | # (# is <25%) | < 25% | < 6.00 | > 75% | > 7.00
CS(=O)(=O)N1CCN(c2cc(CN3CCCC34CCN(C(=O)OC(C(F)(F)F)C(F)(F)F)CC4)cc(C(F)(F)F)c2)CC1 [Example 43, 1,1,1,3,3,3-Hexafluoropropan-2-yl 1-(3-(4-(methylsulfonyl)piperazin-1-yl)-5-(trifluoromethyl)benzyl)-1,8-diazaspiro[4.5]decane-8-carboxylate] | # (# is <25%) | ## (## is equal to or greater than 25% but less than 75%) | < 25% | < 6.00 | # (# is <25%) | < 25% | < 6.00 | > 75% | > 7.00
O=C(OC(C(F)(F)F)C(F)(F)F)N1CCC2(CCCN2Cc2cc(N3CCC(F)CC3)cc(C(F)(F)F)c2)CC1 [Example 45, 1,1,1,3,3,3-Hexafluoropropan-2-yl 1-(3-(4-fluoropiperidin-1-yl)-5-(trifluoromethyl)benzyl)-1,8-diazaspiro[4.5]decane-8-carboxylate] | # (# is <25%) | ## (## is equal to or greater than 25% but less than 75%) |  | < 6.00 | # (# is <25%) |  | < 6.00 |  | > 7.00
O=C(OC(C(F)(F)F)C(F)(F)F)N1CCC2(CCCN2Cc2cc(N3CC4COCC4C3)cc(C(F)(F)F)c2)CC1 (stereo not drawn) [Example 46, 1,1,1,3,3,3-Hexafluoropropan-2-yl 1-(3-(tetrahydro-1H-furo[3,4-c]pyrrol-5(3H)-yl)-5-(trifluoromethyl)benzyl)-1,8-diazaspiro[4.5]decane-8-carboxylate] | # (# is <25%) | ### (### is ≥75%) |  | < 6.00 | # (# is <25%) |  | < 6.00 |  | > 7.00
O=C(OC(C(F)(F)F)C(F)(F)F)N1CCC2(CCCN2Cc2cc(N3CCC3)cc(C(F)(F)F)c2)CC1 [Example 47, 1,1,1,3,3,3-Hexafluoropropan-2-yl 1-(3-(azetidin-1-yl)-5-(trifluoromethyl)benzyl)-1,8-diazaspiro[4.5]decane-8-carboxylate] | # (# is <25%) | ### (### is ≥75%) | < 25% | < 6.00 | # (# is <25%) | < 25% | < 6.00 | > 75% | > 7.00
